Assay results as given in patent publication US20210275581A1 (priority 2020, published 2021).

How the values were obtained:
[1] = system: Streptococcus mutans Clark (ATCC); details: for minimal inhibitory concentration S. mutans: liquid culture, static growth, 37° C., 20 hours, 96 well microtiter plates
Procedure: (§1) Salmonella enterica Serovar typhimurium LT2, Staphylococcus aureus USA300 LAC, and Streptococcus mutans Clark (ATCC) were used for the experiment. […] S. enterica and S. aureus were cultured in Muller Hinton media (Sigma-Aldrich) and S. mutans was cultured in Reinforced Clostridial Media (Oxoid).
(§2) Single bacterial colonies were inoculated into 2 mL of medium in 10 mL capacity culture tubes. Inoculated cultures of S. aureus and S. enterica were grown aerobically at 37° C. with shaking at 200 rpm for 24 hours. S. mutans was cultured statically for 48 hours. […] MICs were determined in cultures grown in 96 well microtiter plates. 100 μL of the standardized culture was sub-cultured into wells containing 100 μL of medium containing antimicrobial compound. Control wells containing 200 μL of media only or media compound were used to standardize the data. The microtiter plates were aerobically incubated statically at 37° C. for 20 hours. Culture optical densities (A600) were determined using Biotek® EPOCH 2 microplate reader.
(§3) The ability of Zn and (CP)2ZnCl4 to inhibit the growth of bacterial pathogens was examined. The minimal inhibitory concentrations of Zn and (CP)2ZnCl4 were determined in liquid culture after static growth.

[2] = system: Salmonella enterica Serovar typhimurium LT2; details: liquid culture, static growth, 37° C., 20 hours, 96 well microtiter plates
Procedure: as §1, §2, §3

[3] = system: Staphylococcus aureus USA300 LAC; details: liquid culture, static growth, 37° C., 20 hours, 96 well microtiter plates
Procedure: as §1, §2, §3

| Compound | minimal inhibitory concentration S. mutans [1] [µg/mL] | antibacterial activity against S. mutans, compared to CPC ([1]; result in words, comparison with CPC) | MIC for Streptococcus mutans compared with zinc chloride or CPC ([1]; result in words, comparison with zinc chloride or CPC) | minimal inhibitory concentration S. enterica [2] [µg/mL] | minimal inhibitory concentration S. aureus [3] [µg/mL] |
| --- | --- | --- | --- | --- | --- |
| CCCCCCCCCCCCCCCC[n+]1ccccc1.CCCCCCCCCCCCCCCC[n+]1ccccc1.[Cl][Zn-2]([Cl])([Cl])[Cl] [(CP)2ZnCl4, cetylpyridinium tetrachlorozincate] | 6 | slight improvement | lower than that of zinc chloride or CPC | 60 | 6 |
| [Cl-].[Cl-].[Zn+2] [ZnCl2, zinc chloride, reference compound] | ~65 | – | – | ~300 | – |
